Blank lines part the entries; values can stand above or below the compound they belong to.
Columns and labels:
[1] = target: T1, hEP4 (C6 glioma cells overexpressing hEP4) (Homo sapiens, UniProt P35408); assay: hEP4 cell based assay (cAMP), inhibition of PGE2 induced cAMP, HTRF; conditions: 1 μM compound, PGE2 at EC80
T1 construct: host or cells: C6 glioma cells overexpressing hEP4
Experimental: The functional assay for hEP4 activation and inhibition was carried out via the quantitative determination of agonist, PGE2, induced cAMP response using HTRF in a competitive immunoassay (Cisbio dynamic 2 kit). NCEs at varying concentrations were evaluated for inhibition of PGE2 induced increase in cAMP. Briefly, C6 glioma cells overexpressing hEP4 (Takeda) were cultured in DMEM (low glucose, pyruvate), 10% FBS (Gibco) and PenStep. The cells were harvested on the day of the assay, washed with HBSS+10 mM HEPES (pH 7.4)+0.1% BSA buffer and pre-incubated with varying concentrations of NCE. Each reaction contained 7000 cells and NCEs in HBSS+10 mM HEPES+0.1% BSA assay buffer along with PDE inhibitors IBMX and Ro 20-1724 (final concentration of each inhibitor […]). Following 15 min pre-incubation, the cells were treated with EC80 concentration of agonist PGE2 for 30 min to induce cAMP. Final volume of the assay was 6 μL and DMSO concentration was maintained at 1%. The reaction was terminated with the addition of cAMP labeled with the dye d2 in lysis buffer according to manufacturers' protocol. This was followed by the addition of the anti-cAMP antibody labeled with Cryptate according to the manufacturers' protocol. The reaction was incubated at room temperature in dark for 45 min and the plate was evaluated for fluorescence at 665 nm (FRET) and 620 nm (cryptate emission) on a Flexstation III microplate reader (Molecular Devices, Sunnyvale, Calif.) Ex max: 313 nm; Em1: 620 nm; Em2: 665 nm. Data was analyzed using GraphPad Prism 5 (GraphPad Software Inc., San Diego, Calif.) where cells treated with agonist (EC80) was normalized to 0% inhibition of hEP4 and cells treated with buffer (no agonist) was normalized to 100% inhibition of hEP4. IC50 of NCEs was generated using non-linear regression—Log(inhibitor) vs. response equation in GraphPad Prism 5.

human EP4 receptor = target: T2, human EP4 receptor (Homo sapiens, UniProt P35408); assay: hEP4 radioligand binding assay ([3H] PGE2 competitive binding, membrane fractions); conditions: 1 nM [3H] PGE2; for inhibition at 0.3 µM: 300 nM compound; for inhibition at 1 µM: 1 μM compound
T2 construct: expressed in transfected cells; host or cells: FreeStyle293 (HEK293F) cells, transient transfection with pcDNA3.1(+), total membrane fraction
Excerpt: The full-length coding sequences for human EP1 (NM_000955), human EP2 (NM_000956), human EP3 (NM_198717) and human EP4 (NM_000958) were cloned into pcDNA3.1(+) vector (Life Technologies, CA, USA). In order to prepare overexpressed EP 1-4 membrane in Freestyle293 cells (Life Technologies, CA, USA), the pcDNA3.1(+) vector encoding a cDNA of the relevant gene was transiently transfected into FreeStyle293 cells using 293Fectin (Life Technologies, CA, USA) according to the manufacturer instruction manual. After 2 days, cultured cells were centrifuged (1,000×g, 10 min, 4° C.) and pellets homogenized by a probe sonicator (Sonics vibracell, Sonics and Materials Inc., USA; 31% Amp, 5 sec pulse, Imin interval, 4 cycles) in ice-cold 50 mM Tris-HCl buffer (pH 7.5 at 25° C.) containing 0.5 mM EDTA, 250 mM Sucrose and 10 mM MgCl2. Cell homogenates were centrifuged (890×g, 10 min, 4° C.), and the supernatant was recovered. Total membrane fractions were isolated by ultracentrifugation (140,000×g, 60 min, 4° C.). Pellets were re-suspended in the same buffer, and stored at −80° C. until use. The protein concentration in homogenate was determined with the BCA Protein Assay Kit (Pierce Biotechnology, Inc., IL, USA) according to the manufacturer protocol.
The binding affinity of the compounds was evaluated using a competitive radioligand binding assay which measured the specific binding of [3H] PGE2 to the human EP4 receptor. Briefly, varying concentrations of NCEs were incubated with cell membrane fractions generated HEK293F cells transiently transfected with human EP4 receptor as described above. Each reaction consisted of 10 μg membrane protein and NCE in 50 mM Tris-HCl, pH-6.0 by NaOH, 10 mM MgCl2 and 0.5 mM EDTA assay buffer. Radioligand, [3H] PGE2 (American Radiochemicals Inc. Specific Activity 180 Ci/mmol), at a final of 1 nM was added to each reaction where the final assay volume was 200 μL and concentration of DMSO was adjusted to 1%. Appropriate controls included total binding in the assay (vehicle control) and control for non-specific binding. Non-specific binding was evaluated by incubating the hEP4 protein with 10 μM unlabeled PGE2 under the same assay conditions as NCEs. The reaction was incubated at room temperature for 2 hours and terminated by harvesting the reaction contents to a PEI coated GF/C filter plate (PerkinElmer). The plate was washed four times with cold 50 mM Tris-HCl, pH-7.5 wash buffer and dried at 50° C. for 2 hours or at 37° C. overnight. [3H] PGE2 bound to the protein was quantified by the addition of 25 μL of Microscint PS (PerkinElmer) and plate was read on MicroBeta2 liquid Scintillation and luminescence counter (PerkinElmer). Data was analyzed using GraphPad Prism 5 (GraphPad Software Inc., San Diego, Calif.) where non-specific binding was normalized to 0% specific binding of [3]PGE2 and vehicle control (DMSO) was normalized to 100% specific binding of [3]PGE2. Binding affinity of NCEs, Ki, was generated using One site—Fit Ki equation in GraphPad Prism 5.

T2 sequence (P35408 whole entry): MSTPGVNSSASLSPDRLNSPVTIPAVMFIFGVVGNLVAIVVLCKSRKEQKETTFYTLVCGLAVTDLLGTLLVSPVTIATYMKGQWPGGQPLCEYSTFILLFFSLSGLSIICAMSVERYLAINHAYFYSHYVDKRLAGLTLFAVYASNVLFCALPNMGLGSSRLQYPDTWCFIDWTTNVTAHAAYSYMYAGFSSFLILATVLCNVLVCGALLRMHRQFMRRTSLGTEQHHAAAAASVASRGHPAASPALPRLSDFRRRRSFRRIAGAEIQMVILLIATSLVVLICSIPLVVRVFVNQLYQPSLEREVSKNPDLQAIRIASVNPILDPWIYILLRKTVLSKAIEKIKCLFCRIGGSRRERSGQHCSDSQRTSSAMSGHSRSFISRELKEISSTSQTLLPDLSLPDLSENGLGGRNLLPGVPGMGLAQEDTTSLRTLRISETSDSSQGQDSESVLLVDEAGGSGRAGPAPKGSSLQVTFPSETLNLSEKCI
T1 sequence (P35408 whole entry): as above

Structure (SMILES): Cc1cccnc1CNc1nccc2c1N(Cc1ccc(F)c(F)c1)CCO2 [Example A50, 4-[(3,4-difluorophenyl)methyl]-N-[(3-methyl-2-pyridyl)methyl]-2,3-dihydropyrido[4,3-b][1,4]oxazin-5-amine]
inhibition at 0.3 µM (human EP4 receptor): 26%

Structure (SMILES): COc1ccc(CNc2nccc3c2N(Cc2ccc(F)c(F)c2)CCO3)cc1 [Example A49, 4-[(3,4-difluorophenyl)methyl]-N-[(4-methoxyphenyl)methyl]-2,3-dihydropyrido[4,3-b][1,4]oxazin-5-amine]
inhibition at 0.3 µM (human EP4 receptor): 17%

Structure (SMILES): Fc1ccc(CN2CCOc3ccnc(NCC4CCCCC4)c32)cc1F [Example A51, N-(cyclohexylmethyl)-4-[(3,4-difluorophenyl)methyl]-2,3-dihydropyrido[4,3-b][1,4]oxazin-5-amine]
inhibition at 1 µM (human EP4 receptor): 29%

Structure (SMILES): COC(=O)c1ccc([C@H](C)Nc2nccc3c2N(C(=O)c2ccc(C(F)(F)F)cc2)CCO3)cc1 [Example A48, methyl 4-[(1S)-1-[[4-[4-(trifluoromethyl)benzoyl]-2,3-dihydropyrido[4,3-b][1,4]oxazin-5-yl]amino]ethyl]benzoate]
inhibition at 0.3 µM (human EP4 receptor): 28%

Structure (SMILES): COC(=O)c1ccc(C2(Nc3nccc4c3N(Cc3ccc(F)c(F)c3)C(=O)CO4)CC2)cc1 [Example A47, methyl 4-[1-[[4-[(3,4-difluorophenyl)methyl]-3-oxopyrido[4,3-b][1,4]oxazin-5-yl]amino]cyclopropyl]benzoate]
inhibition at 0.3 µM (human EP4 receptor): 12%

Structure (SMILES): COC(=O)c1ccc([C@H](C)Nc2ncnc3c2N(Cc2cccc(Cl)c2)C(=O)CO3)cc1 [Example A46, methyl 4-[(1S)-1-[[5-[(3-chlorophenyl)methyl]-6-oxo-pyrimido[4,5-b][1,4]oxazin-4-yl]amino]ethyl]benzoate]
inhibition at 0.3 µM (human EP4 receptor): 12%

Results, then the compound that gave them:

inhibition at 1 µM [1]: 90%
inhibition at 0.3 µM (human EP4 receptor): 81%
Structure (SMILES): C[C@H](Nc1nccc2c1N(CCOc1ccc(F)cc1)CCO2)c1ccc(C(=O)O)cc1 [Example B3, 4-[(1S)-1-[[4-[2-(4-Fluorophenoxy)ethyl]-2,3-dihydropyrido[4,3-b][1,4]oxazin-5-yl]amino]ethyl]benzoic acid]

inhibition at 1 µM [1]: 90%
inhibition at 0.3 µM (human EP4 receptor): 100%
Structure (SMILES): C[C@H](Nc1nccc2c1N(Cc1ccc(C(F)(F)F)cc1)CCO2)c1ccc(-c2nnn[nH]2)cc1 [Example F1, N-[(1S)-1-[4-(1H-Tetrazol-5-yl)phenyl]ethyl]-4-[[4-(trifluoromethyl)phenyl]methyl]-2,3-dihydropyrido[4,3-b][1,4]oxazin-5-amine]

inhibition at 1 µM [1]: 79%
inhibition at 0.3 µM (human EP4 receptor): 98%
Structure (SMILES): Cc1cccc(CN2CCOc3ccnc(NC4(c5ccc(C(=O)O)cc5)CC4)c32)c1 [Example B25, 4-[1-[[4-(m-tolylmethyl)-2,3-dihydropyrido[4,3-b][1,4]oxazin-5-yl]amino]cyclopropyl]benzoic acid]

inhibition at 1 µM [1]: 95%
inhibition at 0.3 µM (human EP4 receptor): 87%
Structure (SMILES): Cc1cnc(N[C@@H](C)c2ccc(C(=O)O)cc2)c2c1OCCN2Cc1cccc(C(F)(F)F)c1 [Example B46, 4-[(1S)-1-[[8-Methyl-4-[[3-(trifluoromethyl)phenyl]methyl]-2,3-dihydropyrido[4,3-b][1,4]oxazin-5-yl]amino]ethyl]benzoic acid]

inhibition at 0.3 µM (human EP4 receptor): 88%
Structure (SMILES): C[C@H](Nc1ncnc2c1N(Cc1cccc(Cl)c1)CCO2)c1ccc(C(=O)O)cc1 [Example B38, 4-[(1S)-1-[[5-[(3-chlorophenyl)methyl]-6,7-dihydropyrimido[4,5-b][1,4]oxazin-4-yl]amino]ethyl]benzoic acid]

inhibition at 0.3 µM (human EP4 receptor): 42.5%
Structure (SMILES): C[C@H](Nc1nccc2c1N(Cc1cccc(Cl)c1)CCN2C)c1ccc(C(=O)O)cc1 [Example B34, 4-[(1S)-1-[[4-[(3-chlorophenyl)methyl]-1-methyl-2,3-dihydropyrido[3,4-b]pyrazin-5-yl]amino]ethyl]benzoic acid]

inhibition at 0.3 µM (human EP4 receptor): 0.3%
inhibition at 1 µM (human EP4 receptor): 26%
Structure (SMILES): C[C@H](Nc1nccc2c1N(Cc1ccc(F)c(F)c1)C(=O)CS2)c1ccc(C(=O)O)cc1 [Example B42, 4-[(1S)-1-[[4-[(3,4-difluorophenyl)methyl]-3-oxopyrido[4,3-b][1,4]thiazin-5-yl]amino]ethyl]benzoic acid]

inhibition at 0.3 µM (human EP4 receptor): 10%
Structure (SMILES): C[C@H](Nc1nccc2c1N(Cc1cccc(Cl)c1)C(=O)CS2)c1ccc(C(=O)O)cc1 [Example B43, 4-[(1S)-1-[[4-[(3-chlorophenyl)methyl]-3-oxopyrido[4,3-b][1,4]thiazin-5-yl]amino]ethyl]benzoic acid]

inhibition at 0.3 µM (human EP4 receptor): 60%
Structure (SMILES): C[C@H](Nc1ncc(C2CC2)c2c1N(Cc1cccc(C(F)(F)F)c1)CCO2)c1ccc(C(=O)O)cc1 [Example B47, 4-[(1S)-1-[[8-cyclopropyl-4-[[3-(trifluoromethyl)phenyl]methyl]-2,3-dihydropyrido[4,3-b][1,4]oxazin-5-yl]amino]ethyl]benzoic acid]

inhibition at 0.3 µM (human EP4 receptor): 42.4%
Structure (SMILES): C[C@H](Nc1nccc2c1N(Cc1ccc(C(F)(F)F)cc1)CCN2C)c1ccc(C(=O)O)cc1 [Example B35, 4-[(1S)-1-[[1-methyl-4-[[4-(trifluoromethyl)phenyl]methyl]-2,3-dihydropyrido[3,4-b]pyrazin-5-yl]amino]ethyl]benzoic acid]

inhibition at 0.3 µM (human EP4 receptor): 49%
Structure (SMILES): C[C@H](Nc1nccc2c1N(Cc1ccc(C(F)(F)F)cc1)C(=O)CS2)c1ccc(C(=O)O)cc1 [Example B36, 4-[(1S)-1-[[3-oxo-4-[[4-(trifluoromethyl)phenyl]methyl]pyrido[4,3-b][1,4]thiazin-5-yl]amino]ethyl]benzoic acid]

inhibition at 0.3 µM (human EP4 receptor): 42%
Structure (SMILES): C[C@H](Nc1nccc2c1N(Cc1ccccn1)CCO2)c1ccc(C(=O)O)cc1 [Example B27, 4-[(1S)-1-[[4-(2-pyridylmethyl)-2,3-dihydropyrido[4,3-b][1,4]oxazin-5-yl]amino]ethyl]benzoic acid]

inhibition at 0.3 µM (human EP4 receptor): 47%
Structure (SMILES): Cc1noc(C)c1CN1CCOc2ccnc(N[C@@H](C)c3ccc(C(=O)O)cc3)c21 [Example B41, 4-[(1S)-1-[[4-[(3,5-dimethylisoxazol-4-yl)methyl]-2,3-dihydropyrido[4,3-b][1,4]oxazin-5-yl]amino]ethyl]benzoic acid]

inhibition at 0.3 µM (human EP4 receptor): 49%
Structure (SMILES): C[C@H](Nc1nccc2c1N(Cc1cccnc1)CCO2)c1ccc(C(=O)O)cc1 [Example B28, 4-[(1S)-1-[[4-(3-pyridylmethyl)-2,3-dihydropyrido[4,3-b][1,4]oxazin-5-yl]amino]ethyl]benzoic acid]
